From the kinase profiling compilation of Christmann-Franck et al. (2016)

Key:
Experiment in all cases: radiometric filter-binding kinase assay
PKN2 (human) = PKN2 (human) (UniProt Q16513)
MAP2K2 (human) = MAP2K2 (human) (UniProt P36507)
ERBB4 (human) = ERBB4 (human) (UniProt Q15303)
[1] = tested on: AKT1 (human), P31749 [S473D]
MAP3K5 (human) = MAP3K5 (human) (UniProt Q99683)
MAP3K1 (human) = MAP3K1 (human) (UniProt Q13233)
MELK (human) = MELK (human) (UniProt Q14680)
EPHA2 (human) = EPHA2 (human) (UniProt P29317)
MAP3K9 (human) = MAP3K9 (human) (UniProt P80192)
MAP3K9 (human), sequence (P80192 whole entry, looked up): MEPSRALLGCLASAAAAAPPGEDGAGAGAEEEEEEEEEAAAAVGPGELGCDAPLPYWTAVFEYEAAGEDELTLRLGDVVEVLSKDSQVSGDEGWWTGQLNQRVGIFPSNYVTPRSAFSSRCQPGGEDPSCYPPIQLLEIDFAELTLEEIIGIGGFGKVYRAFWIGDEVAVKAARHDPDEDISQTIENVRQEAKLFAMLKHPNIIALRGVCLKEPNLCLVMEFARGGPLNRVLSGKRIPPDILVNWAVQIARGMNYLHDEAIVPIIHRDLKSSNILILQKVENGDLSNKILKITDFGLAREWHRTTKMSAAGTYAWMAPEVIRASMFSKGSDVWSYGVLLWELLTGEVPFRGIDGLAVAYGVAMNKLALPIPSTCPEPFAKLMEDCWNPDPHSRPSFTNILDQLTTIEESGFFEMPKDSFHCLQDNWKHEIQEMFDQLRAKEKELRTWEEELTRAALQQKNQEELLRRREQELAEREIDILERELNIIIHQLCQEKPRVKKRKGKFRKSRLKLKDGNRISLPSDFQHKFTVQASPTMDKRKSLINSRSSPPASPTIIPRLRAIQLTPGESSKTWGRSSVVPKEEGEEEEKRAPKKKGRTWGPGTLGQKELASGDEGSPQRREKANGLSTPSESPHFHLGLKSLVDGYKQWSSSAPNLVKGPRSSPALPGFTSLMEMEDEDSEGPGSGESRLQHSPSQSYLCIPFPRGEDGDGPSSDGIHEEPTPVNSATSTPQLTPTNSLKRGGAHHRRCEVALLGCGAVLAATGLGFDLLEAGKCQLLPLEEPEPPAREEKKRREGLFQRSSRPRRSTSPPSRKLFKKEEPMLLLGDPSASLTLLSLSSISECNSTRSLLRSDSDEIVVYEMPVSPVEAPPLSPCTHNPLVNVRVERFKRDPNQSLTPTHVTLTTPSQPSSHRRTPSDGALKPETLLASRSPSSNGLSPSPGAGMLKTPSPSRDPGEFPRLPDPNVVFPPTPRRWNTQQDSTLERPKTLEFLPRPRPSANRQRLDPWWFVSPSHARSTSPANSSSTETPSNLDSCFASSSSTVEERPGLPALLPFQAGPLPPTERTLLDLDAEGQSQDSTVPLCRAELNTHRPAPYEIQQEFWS

AURKA (human) = AURKA (human) (UniProt O14965)
AURKA (human), sequence (O14965 whole entry, looked up): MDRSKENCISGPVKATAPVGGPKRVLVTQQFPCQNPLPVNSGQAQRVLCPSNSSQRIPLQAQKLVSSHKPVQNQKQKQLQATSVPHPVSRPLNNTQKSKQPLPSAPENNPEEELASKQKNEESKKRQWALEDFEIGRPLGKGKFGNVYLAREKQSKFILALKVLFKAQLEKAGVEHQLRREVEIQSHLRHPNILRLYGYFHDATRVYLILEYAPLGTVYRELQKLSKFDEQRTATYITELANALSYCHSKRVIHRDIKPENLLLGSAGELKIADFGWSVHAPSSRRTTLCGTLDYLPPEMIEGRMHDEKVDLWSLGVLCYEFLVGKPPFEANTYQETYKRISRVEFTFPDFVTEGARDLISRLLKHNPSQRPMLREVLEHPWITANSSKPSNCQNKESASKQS

EEF2K (human) = EEF2K (human) (UniProt O00418)
INSR (human) = INSR (human) (UniProt P06213)
MARK4 (human) = MARK4 (human) (UniProt Q96L34)
HIPK3 (human) = HIPK3 (human) (UniProt Q9H422)
HIPK3 (human), sequence (Q9H422 whole entry, looked up): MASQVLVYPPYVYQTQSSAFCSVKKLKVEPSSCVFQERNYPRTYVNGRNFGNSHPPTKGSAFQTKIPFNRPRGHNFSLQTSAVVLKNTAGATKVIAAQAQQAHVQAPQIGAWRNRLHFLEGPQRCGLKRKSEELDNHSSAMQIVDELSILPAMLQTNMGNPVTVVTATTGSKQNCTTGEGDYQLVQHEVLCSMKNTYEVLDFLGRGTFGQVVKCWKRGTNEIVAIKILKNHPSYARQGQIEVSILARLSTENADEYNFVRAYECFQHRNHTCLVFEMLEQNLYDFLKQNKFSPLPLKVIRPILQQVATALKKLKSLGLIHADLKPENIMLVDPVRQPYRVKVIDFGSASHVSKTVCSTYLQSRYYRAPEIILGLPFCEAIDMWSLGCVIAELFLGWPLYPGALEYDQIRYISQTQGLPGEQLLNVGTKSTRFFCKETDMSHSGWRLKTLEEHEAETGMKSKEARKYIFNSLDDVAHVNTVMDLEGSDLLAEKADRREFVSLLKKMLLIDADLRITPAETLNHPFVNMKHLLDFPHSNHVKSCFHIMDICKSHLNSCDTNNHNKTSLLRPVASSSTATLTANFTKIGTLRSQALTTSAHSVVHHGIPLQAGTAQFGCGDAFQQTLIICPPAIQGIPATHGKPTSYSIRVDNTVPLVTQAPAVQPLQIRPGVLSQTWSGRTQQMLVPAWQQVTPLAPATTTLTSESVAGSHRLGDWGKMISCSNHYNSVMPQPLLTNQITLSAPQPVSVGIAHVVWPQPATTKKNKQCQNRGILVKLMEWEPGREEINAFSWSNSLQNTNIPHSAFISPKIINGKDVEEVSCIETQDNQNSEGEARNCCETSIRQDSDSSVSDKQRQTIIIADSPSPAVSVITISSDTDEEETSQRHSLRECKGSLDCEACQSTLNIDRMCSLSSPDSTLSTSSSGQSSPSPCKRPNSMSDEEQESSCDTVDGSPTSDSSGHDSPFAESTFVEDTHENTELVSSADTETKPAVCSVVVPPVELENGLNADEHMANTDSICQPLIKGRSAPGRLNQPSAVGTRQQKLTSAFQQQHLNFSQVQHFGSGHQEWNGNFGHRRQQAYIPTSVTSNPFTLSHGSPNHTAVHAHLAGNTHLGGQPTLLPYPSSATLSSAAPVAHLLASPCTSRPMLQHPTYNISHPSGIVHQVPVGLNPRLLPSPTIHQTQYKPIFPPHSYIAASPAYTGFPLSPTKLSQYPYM

IRAK4 (human) = IRAK4 (human) (UniProt Q9NWZ3)
BRSK1 (human) = BRSK1 (human) (UniProt Q8TDC3)
PRKCZ (human) = PRKCZ (human) (UniProt Q05513)
EPHB3 (human) = EPHB3 (human) (UniProt P54753)
PRKCA (human) = PRKCA (human) (UniProt P17252)
MAPK9 (human) = MAPK9 (human) (UniProt P45984)
MAP2K6 (human) = MAP2K6 (human) (UniProt P52564)
PAK4 (human) = PAK4 (human) (UniProt O96013)
PAK4 (human), sequence (O96013 whole entry, looked up): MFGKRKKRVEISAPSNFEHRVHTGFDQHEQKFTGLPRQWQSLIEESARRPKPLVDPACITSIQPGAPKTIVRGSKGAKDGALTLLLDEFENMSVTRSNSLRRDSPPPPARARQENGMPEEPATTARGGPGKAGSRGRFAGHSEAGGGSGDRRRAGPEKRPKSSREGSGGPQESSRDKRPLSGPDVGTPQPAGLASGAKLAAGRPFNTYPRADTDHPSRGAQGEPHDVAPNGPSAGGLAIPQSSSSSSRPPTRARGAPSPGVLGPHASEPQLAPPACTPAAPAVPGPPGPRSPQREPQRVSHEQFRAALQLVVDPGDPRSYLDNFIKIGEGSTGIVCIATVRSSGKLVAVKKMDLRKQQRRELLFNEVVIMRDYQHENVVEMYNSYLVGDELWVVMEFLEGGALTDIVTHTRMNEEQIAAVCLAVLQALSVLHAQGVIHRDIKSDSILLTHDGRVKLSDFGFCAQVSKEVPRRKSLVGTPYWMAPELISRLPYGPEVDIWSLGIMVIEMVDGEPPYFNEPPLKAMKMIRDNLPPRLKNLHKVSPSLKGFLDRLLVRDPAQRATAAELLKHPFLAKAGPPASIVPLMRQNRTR

GSK3B (human) = GSK3B (human) (UniProt P49841)
MAPK12 (human) = MAPK12 (human) (UniProt P53778)
DYRK2 (human) = DYRK2 (human) (UniProt Q92630)
[2] = target: STK11 CAB39 STRADA (human) (UniProt Q9Y376+Q7RTN6+Q15831)
MAPKAPK2 (human) = MAPKAPK2 (human) (UniProt P49137)
MARK1 (human) = MARK1 (human) (UniProt Q9P0L2)
PAK6 (human) = PAK6 (human) (UniProt Q9NQU5)
MAP3K11 (human) = MAP3K11 (human) (UniProt Q16584)
MAP3K11 (human), sequence (Q16584 whole entry, looked up): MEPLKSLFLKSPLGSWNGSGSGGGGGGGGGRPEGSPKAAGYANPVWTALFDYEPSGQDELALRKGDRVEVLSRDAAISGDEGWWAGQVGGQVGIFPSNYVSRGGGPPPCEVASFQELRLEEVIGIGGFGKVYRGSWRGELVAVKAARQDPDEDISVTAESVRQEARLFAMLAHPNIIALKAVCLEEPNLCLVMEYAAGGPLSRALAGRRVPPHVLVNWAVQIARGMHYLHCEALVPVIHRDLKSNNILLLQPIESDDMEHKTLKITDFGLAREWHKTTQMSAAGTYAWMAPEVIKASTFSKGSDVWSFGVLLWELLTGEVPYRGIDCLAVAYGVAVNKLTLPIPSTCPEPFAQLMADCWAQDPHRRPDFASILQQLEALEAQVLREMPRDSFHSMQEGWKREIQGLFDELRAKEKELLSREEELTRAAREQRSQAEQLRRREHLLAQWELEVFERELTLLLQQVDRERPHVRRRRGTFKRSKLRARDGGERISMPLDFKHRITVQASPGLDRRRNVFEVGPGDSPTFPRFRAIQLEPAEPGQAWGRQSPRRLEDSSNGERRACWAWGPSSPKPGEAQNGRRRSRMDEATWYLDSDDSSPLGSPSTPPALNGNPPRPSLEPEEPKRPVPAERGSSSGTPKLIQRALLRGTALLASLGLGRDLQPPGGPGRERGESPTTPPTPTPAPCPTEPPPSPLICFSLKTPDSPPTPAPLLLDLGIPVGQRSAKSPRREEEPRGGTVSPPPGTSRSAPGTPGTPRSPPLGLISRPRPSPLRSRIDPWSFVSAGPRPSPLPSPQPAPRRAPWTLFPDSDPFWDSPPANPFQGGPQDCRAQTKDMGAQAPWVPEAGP

NUAK1 (human) = NUAK1 (human) (UniProt O60285)
NUAK1 (human), sequence (O60285 whole entry, looked up): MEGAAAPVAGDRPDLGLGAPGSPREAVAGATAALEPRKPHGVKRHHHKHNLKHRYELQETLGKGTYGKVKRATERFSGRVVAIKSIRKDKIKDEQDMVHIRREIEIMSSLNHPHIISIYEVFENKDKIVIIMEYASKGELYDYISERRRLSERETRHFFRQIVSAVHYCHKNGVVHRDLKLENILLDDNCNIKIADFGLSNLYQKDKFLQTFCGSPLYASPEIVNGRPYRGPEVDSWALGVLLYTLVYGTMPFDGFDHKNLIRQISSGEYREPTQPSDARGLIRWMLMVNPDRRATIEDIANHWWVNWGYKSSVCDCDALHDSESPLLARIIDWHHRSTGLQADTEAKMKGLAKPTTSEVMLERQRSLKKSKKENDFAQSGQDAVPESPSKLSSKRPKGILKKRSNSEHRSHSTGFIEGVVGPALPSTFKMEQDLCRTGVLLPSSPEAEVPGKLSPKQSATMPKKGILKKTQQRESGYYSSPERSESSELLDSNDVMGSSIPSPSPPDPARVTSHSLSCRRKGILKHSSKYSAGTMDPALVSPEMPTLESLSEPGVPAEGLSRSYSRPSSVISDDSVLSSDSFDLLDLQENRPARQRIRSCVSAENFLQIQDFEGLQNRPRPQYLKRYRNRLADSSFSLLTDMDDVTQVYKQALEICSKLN

MAP3K7 TAB1 (human) = MAP3K7 TAB1 (human) (UniProt Q15750+O43318)
MARK2 (human) = MARK2 (human) (UniProt Q7KZI7)
MST4 (human) = MST4 (human) (UniProt Q9P289)
PIM1 (human) = PIM1 (human) (UniProt P11309)
NTRK1 (human) = NTRK1 (human) (UniProt P04629)

CC1=C(CO)C(=O)O[C@@H]([C@@H](C)[C@H]2CC[C@H]3[C@@H]4C[C@H]5O[C@]56[C@@H](O)C=CC(=O)[C@]6(C)C4CC[C@]23C)C1 (stereo not given in full)
residual activity (PKN2 (human); compound 0.1 µM): 103% | residual activity (PKN2 (human); compound 1.0 µM): 95% | residual activity (PKN2 (human); compound 10.0 µM): 104% | residual activity (MAP2K2 (human); compound 0.1 µM): 108% | residual activity (MAP2K2 (human); compound 10.0 µM): 120% | residual activity (ERBB4 (human); compound 0.1 µM): 113% | residual activity (ERBB4 (human); compound 1.0 µM): 109% | residual activity (ERBB4 (human); compound 10.0 µM): 101% | residual activity ([1]; compound 0.1 µM): 118% | residual activity ([1]; compound 1.0 µM): 99% | residual activity ([1]; compound 10.0 µM): 105% | residual activity (MAP3K5 (human); compound 0.1 µM): 104% | residual activity (MAP3K5 (human); compound 1.0 µM): 100% | residual activity (MAP3K1 (human); compound 0.1 µM): 112% | residual activity (MAP3K1 (human); compound 1.0 µM): 115% | residual activity (MAP3K1 (human); compound 10.0 µM): 95% | residual activity (MELK (human); compound 0.1 µM): 98% | residual activity (MELK (human); compound 1.0 µM): 107% | residual activity (MELK (human); compound 10.0 µM): 123% | residual activity (EPHA2 (human); compound 0.1 µM): 94% | residual activity (EPHA2 (human); compound 1.0 µM): 93% | residual activity (EPHA2 (human); compound 10.0 µM): 96% | residual activity (MAP3K9 (human); compound 0.1 µM): 91% | residual activity (MAP3K9 (human); compound 1.0 µM): 100% | residual activity (MAP3K9 (human); compound 10.0 µM): 86% | residual activity (AURKA (human); compound 0.1 µM): 108% | residual activity (AURKA (human); compound 1.0 µM): 102% | residual activity (AURKA (human); compound 10.0 µM): 30% | residual activity (EEF2K (human); compound 0.1 µM): 104% | residual activity (EEF2K (human); compound 1.0 µM): 100% | residual activity (EEF2K (human); compound 10.0 µM): 97% | residual activity (INSR (human); compound 1.0 µM): 117% | residual activity (MARK4 (human); compound 0.1 µM): 87% | residual activity (MARK4 (human); compound 1.0 µM): 97% | residual activity (MARK4 (human); compound 10.0 µM): 77% | residual activity (HIPK3 (human); compound 0.1 µM): 96% | residual activity (HIPK3 (human); compound 1.0 µM): 94% | residual activity (HIPK3 (human); compound 10.0 µM): 58% | residual activity (IRAK4 (human); compound 1.0 µM): 101% | residual activity (IRAK4 (human); compound 10.0 µM): 79% | residual activity (BRSK1 (human); compound 0.1 µM): 106% | residual activity (BRSK1 (human); compound 1.0 µM): 111% | residual activity (BRSK1 (human); compound 10.0 µM): 91% | residual activity (PRKCZ (human); compound 0.1 µM): 103% | residual activity (PRKCZ (human); compound 1.0 µM): 110% | residual activity (PRKCZ (human); compound 10.0 µM): 101% | residual activity (EPHB3 (human); compound 0.1 µM): 114% | residual activity (EPHB3 (human); compound 1.0 µM): 104% | residual activity (EPHB3 (human); compound 10.0 µM): 97% | residual activity (PRKCA (human); compound 0.1 µM): 96% | residual activity (PRKCA (human); compound 1.0 µM): 111% | residual activity (PRKCA (human); compound 10.0 µM): 96% | residual activity (MAPK9 (human); compound 0.1 µM): 112% | residual activity (MAPK9 (human); compound 1.0 µM): 114% | residual activity (MAPK9 (human); compound 10.0 µM): 119% | residual activity (MAP2K6 (human); compound 0.1 µM): 95% | residual activity (MAP2K6 (human); compound 10.0 µM): 109% | residual activity (PAK4 (human); compound 0.1 µM): 94% | residual activity (PAK4 (human); compound 1.0 µM): 104% | residual activity (PAK4 (human); compound 10.0 µM): 104% | residual activity (GSK3B (human); compound 0.1 µM): 114% | residual activity (GSK3B (human); compound 1.0 µM): 124% | residual activity (GSK3B (human); compound 10.0 µM): 127% | residual activity (MAPK12 (human); compound 0.1 µM): 114% | residual activity (MAPK12 (human); compound 1.0 µM): 116% | residual activity (MAPK12 (human); compound 10.0 µM): 103% | residual activity (DYRK2 (human); compound 0.1 µM): 97% | residual activity (DYRK2 (human); compound 1.0 µM): 88% | residual activity (DYRK2 (human); compound 10.0 µM): 104% | residual activity ([2]; compound 0.1 µM): 104% | residual activity ([2]; compound 1.0 µM): 111% | residual activity ([2]; compound 10.0 µM): 114% | residual activity (MAPKAPK2 (human); compound 1.0 µM): 56% | residual activity (MARK1 (human); compound 0.1 µM): 106% | residual activity (MARK1 (human); compound 1.0 µM): 115% | residual activity (MARK1 (human); compound 10.0 µM): 111% | residual activity (PAK6 (human); compound 0.1 µM): 125% | residual activity (PAK6 (human); compound 1.0 µM): 126% | residual activity (PAK6 (human); compound 10.0 µM): 105% | residual activity (MAP3K11 (human); compound 0.1 µM): 110% | residual activity (MAP3K11 (human); compound 1.0 µM): 110% | residual activity (MAP3K11 (human); compound 10.0 µM): 97% | residual activity (NUAK1 (human); compound 0.1 µM): 112% | residual activity (NUAK1 (human); compound 1.0 µM): 121% | residual activity (NUAK1 (human); compound 10.0 µM): 110% | residual activity (MAP3K7 TAB1 (human); compound 0.1 µM): 114% | residual activity (MAP3K7 TAB1 (human); compound 1.0 µM): 104% | residual activity (MAP3K7 TAB1 (human); compound 10.0 µM): 109% | residual activity (MARK2 (human); compound 0.1 µM): 109% | residual activity (MARK2 (human); compound 1.0 µM): 111% | residual activity (MARK2 (human); compound 10.0 µM): 118% | residual activity (MST4 (human); compound 0.1 µM): 97% | residual activity (MST4 (human); compound 1.0 µM): 95% | residual activity (PIM1 (human); compound 0.1 µM): 109% | residual activity (PIM1 (human); compound 1.0 µM): 103% | residual activity (PIM1 (human); compound 10.0 µM): 94% | residual activity (NTRK1 (human); compound 0.1 µM): 92% | residual activity (NTRK1 (human); compound 1.0 µM): 110% | residual activity (NTRK1 (human); compound 10.0 µM): 97%

Oc1ccc(/C=C/c2cc(O)cc(O)c2)cc1
residual activity (PKN2 (human); compound 1.0 µM): 95% | residual activity (PKN2 (human); compound 10.0 µM): 70% | residual activity (PKN2 (human); compound 50.0 µM): 21% | residual activity (MAP2K2 (human); compound 10.0 µM): 91% | residual activity (ERBB4 (human); compound 10.0 µM): 59% | residual activity ([1]; compound 1.0 µM): 82% | residual activity ([1]; compound 10.0 µM): 89% | residual activity ([1]; compound 50.0 µM): 63% | residual activity (MAP3K5 (human); compound 10.0 µM): 77% | residual activity (MAP3K1 (human); compound 10.0 µM): 90% | residual activity (MELK (human); compound 1.0 µM): 49% | residual activity (MELK (human); compound 10.0 µM): 50% | residual activity (MELK (human); compound 50.0 µM): 8% | residual activity (EPHA2 (human); compound 10.0 µM): 81% | residual activity (MAP3K9 (human); compound 10.0 µM): 44% | residual activity (AURKA (human); compound 10.0 µM): 100% | residual activity (EEF2K (human); compound 1.0 µM): 95% | residual activity (EEF2K (human); compound 10.0 µM): 69% | residual activity (EEF2K (human); compound 50.0 µM): 87% | residual activity (INSR (human); compound 10.0 µM): 50% | residual activity (MARK4 (human); compound 10.0 µM): 99% | residual activity (HIPK3 (human); compound 1.0 µM): 93% | residual activity (HIPK3 (human); compound 10.0 µM): 41% | residual activity (HIPK3 (human); compound 50.0 µM): 12% | residual activity (IRAK4 (human); compound 10.0 µM): 73% | residual activity (BRSK1 (human); compound 10.0 µM): 56% | residual activity (PRKCZ (human); compound 1.0 µM): 128% | residual activity (PRKCZ (human); compound 10.0 µM): 105% | residual activity (PRKCZ (human); compound 50.0 µM): 99% | residual activity (EPHB3 (human); compound 10.0 µM): 88% | residual activity (PRKCA (human); compound 1.0 µM): 96% | residual activity (PRKCA (human); compound 10.0 µM): 82% | residual activity (PRKCA (human); compound 50.0 µM): 58% | residual activity (MAPK9 (human); compound 1.0 µM): 95% | residual activity (MAPK9 (human); compound 10.0 µM): 86% | residual activity (MAPK9 (human); compound 50.0 µM): 103% | residual activity (MAP2K6 (human); compound 10.0 µM): 87% | residual activity (PAK4 (human); compound 1.0 µM): 85% | residual activity (PAK4 (human); compound 10.0 µM): 80% | residual activity (PAK4 (human); compound 50.0 µM): 67% | residual activity (GSK3B (human); compound 1.0 µM): 100% | residual activity (GSK3B (human); compound 10.0 µM): 80% | residual activity (GSK3B (human); compound 50.0 µM): 37% | residual activity (MAPK12 (human); compound 1.0 µM): 106% | residual activity (MAPK12 (human); compound 10.0 µM): 78% | residual activity (MAPK12 (human); compound 50.0 µM): 65% | residual activity (DYRK2 (human); compound 1.0 µM): 40% | residual activity (DYRK2 (human); compound 10.0 µM): 15% | residual activity (DYRK2 (human); compound 50.0 µM): 1% | residual activity ([2]; compound 10.0 µM): 69% | residual activity (MAPKAPK2 (human); compound 1.0 µM): 118% | residual activity (MAPKAPK2 (human); compound 10.0 µM): 88% | residual activity (MAPKAPK2 (human); compound 50.0 µM): 71% | residual activity (MARK1 (human); compound 10.0 µM): 96% | residual activity (PAK6 (human); compound 1.0 µM): 108% | residual activity (PAK6 (human); compound 10.0 µM): 106% | residual activity (PAK6 (human); compound 50.0 µM): 100% | residual activity (MAP3K11 (human); compound 10.0 µM): 35% | residual activity (NUAK1 (human); compound 10.0 µM): 68% | residual activity (MAP3K7 TAB1 (human); compound 10.0 µM): 83% | residual activity (MARK2 (human); compound 10.0 µM): 86% | residual activity (MST4 (human); compound 10.0 µM): 68% | residual activity (PIM1 (human); compound 1.0 µM): 50% | residual activity (PIM1 (human); compound 10.0 µM): 30% | residual activity (PIM1 (human); compound 50.0 µM): 4% | residual activity (NTRK1 (human); compound 10.0 µM): 67%
